Test results taken from patent US20200061047A1, “NEW USE OF RIFAMYCIN-QUINOLIZIDONE DUAL-ACTION MOLECULE” (TenNor Therapeutics Limited, priority 2017, published 2020).
In brackets after ≈: the same amount, converted by molar mass. Where two headings read alike, the source gives them in different places.

Columns and labels:
Assay in all cases: MIC, agar dilution drug sensitivity test
Format in all cases: cell-based
[1] = test system: Bifidobacterium infantis subsp. Infantis ATCC 15702; conditions: ATCC15702, Table 1
[2] = test system: Bacteroides bifidum ATCC 1569; conditions: ATCC1569, Table 1
[3] = test system: Eggerthella lenta ATCC 43055; conditions: ATCC43055, Table 1
[4] = test system: Fusobacterium necrophorum ATCC 25286; conditions: ATCC25286, Table 1
[5] = test system: Lactobacillus salivarius JMI 941623; conditions: Ligilactobacillus salivarius, JMI941623, Table 1
[6] = test system: Peptostreptococcus prevotii ATCC 9321; conditions: Anaerococcus prevotii, ATCC9321, Table 1
[7] = test system: Klebsiella oxytoca JMI 933995; conditions: JMI933995, Table 1
[8] = test system: Morganella morganii MMX 6123; conditions: MMX6123, Table 1
[9] = test system: Proteus vulgaris MMX 6454; conditions: MMX6454, Table 1
[10] = test system: Salmonella spp ATCC 35987; conditions: ATCC35987, Table 1
Method: In this embodiment, compound I-rifamycin-quinolizidone dual-action molecule is used in a drug sensitivity test on pathogenic bacteria associated with hepatic encephalopathy, the pathogenic bacteria including the above ammonia-producing bacteria. Except that Haemophilus is tested using the microscale broth dilution method, all the other bacteria are tested using the agar dilution method consistent with that in the Guideline of the Clinical and Laboratory Standards Institute (CLSI; 1-3). All the other drug susceptibility tests are performed under anaerobic conditions except that some selective isolates are tested under both aerobic and anaerobic conditions. Control compounds include metronidazole, rifampicin, clindamycin (under anaerobic conditions) and ciprofloxacin (under aerobic and anaerobic conditions).
The tested clinical isolates may be reference strains obtained from American Type Culture Collection, ATCC, Manassas, Va. After being received, the strains are respectively inoculated on appropriate agar plates and placed under optimized conditions for growth. The growing strains are cloned in the broth containing cryoprotectant to prepare bacterial suspensions, and the bacterial suspensions are subpackaged and then stored in freezing at −80° C. Before test, the frozen bacteria are inoculated into appropriate agar dishes and cultured for growth. Anaerobic bacteria grow for 48 hours at 35° C. in a Bactron II oxygen-free cabinet (Shel Lab, Cornelius, Oreg.) before test. […]
The Minimum Inhibitory Concentration (MIC) is determined using the agar dilution method.
The MIC values of all microorganisms except Haemophilus are determined using the agar dilution method in the CLSI (1-2). […] After culturing, the MIC is determined in accordance with the CLSI guideline (1-2).

[11] = test system: Alcaligenes faecalis JMI 940880; conditions: JMI940880, Aerobic
[12] = test system: Bacteroides vulgatus JMI 927011; conditions: Phocaeicola vulgatus, JMI927011
[13] = test system: Serratia marcescens ATCC 43862; conditions: Serratia marcescens, ATCC43862, Serratia marcescens ATCC 43862, read-out: MIC
[14] = test system: Enterobacter aerogenes ATCC 13048; conditions: Klebsiella aerogenes, ATCC13048, Enterobacter aerogenes ATCC 13048, read-out: MIC
[15] = test system: Staphylococcus saprophyticus JMI 2016_703; conditions: Aerobic
[16] = test system: Streptococcus parasanguinis MMX 5671; conditions: Streptococcus parasanguinis, MMX5671, Streptococcus parasanguinis MMX 5671, read-out: MIC
[17] = test system: Streptococcus pneumoniae ATCC 49619; conditions: read-out: MIC
[18] = ATCC49619, Streptococcus pneumoniae ATCC 49619, Aerobic
[19] = ATCC49619, Streptococcus pneumoniae ATCC 49619, Anaerobic

SMILES: O=C(O)c1cn(C2CC2)c2cc(N3CCNCC3)c(F)cc2c1=O [Ciprofloxacin, ciprofloxacin]
- MIC [1]: 2 µg/mL (≈ 6.04 µM)
- MIC [2]: 2 µg/mL (≈ 6.04 µM)
- MIC [3]: 1 µg/mL (≈ 3.02 µM)
- MIC [4]: 1 µg/mL (≈ 3.02 µM)
- MIC [5]: 1 µg/mL (≈ 3.02 µM)
- MIC [6]: 1 µg/mL (≈ 3.02 µM)
- MIC [7]: 0.015 µg/mL (≈ 0.0453 µM)
- MIC [8]: 1 µg/mL (≈ 3.02 µM)
- MIC [9]: 0.12 µg/mL (≈ 0.362 µM)
- MIC [10]: 0.015 µg/mL (≈ 0.0453 µM)
- MIC [11]: 1 µg/mL (≈ 3.02 µM)
- MIC [12]: > 16 µg/mL
- MIC ([13]; Aerobic): 0.12 µg/mL (≈ 0.362 µM)
- MIC ([13]; Anaerobic): 0.25 µg/mL (≈ 0.754 µM)
- MIC ([14]; Aerobic): 0.03 µg/mL (≈ 0.0905 µM)
- MIC ([14]; Anaerobic): 2 µg/mL (≈ 6.04 µM)
- MIC [15]: 1 µg/mL (≈ 3.02 µM)
- MIC ([16]; Aerobic): 1 µg/mL (≈ 3.02 µM)
- MIC ([16]; Anaerobic): 1 µg/mL (≈ 3.02 µM)
- MIC [17, 18]: 1 µg/mL (≈ 3.02 µM)
- MIC [17, 19]: 2 µg/mL (≈ 6.04 µM)

SMILES: CO[C@H]1/C=C/O[C@@]2(C)Oc3c(C)c(O)c4c(O)c(c(/C=N/N5CCC(N(C)C6([C@@H]7CCN(c8c(F)cn9c(=O)c(C(=O)O)cc(C%10CC%10)c9c8C)C7)CC6)CC5)c(O)c4c3C2=O)NC(=O)/C(C)=C\C=C\[C@H](C)[C@H](O)[C@@H](C)[C@@H](O)[C@@H](C)[C@H](OC(C)=O)[C@@H]1C [Compound I, (R)-3-[(4-{1-[1-(3-carboxy-1-cyclopropyl-7-fluoro-9-methyl-4-oxo-4H-quinolizine-8-yl)-pyrrolidin-3-yl-cyclopropyl]-methylamino}-piperidin-1-ylimino)-methylene]-rifamycin SV]
- MIC [1]: 2 µg/mL (≈ 1.66 µM)
- MIC [2]: 16 µg/mL (≈ 13.3 µM)
- MIC [3]: 0.06 µg/mL (≈ 0.0498 µM)
- MIC [4]: 0.12 µg/mL (≈ 0.0996 µM)
- MIC [5]: 0.5 µg/mL (≈ 0.415 µM)
- MIC [6]: 0.03 µg/mL (≈ 0.0249 µM)
- MIC [7]: 4 µg/mL (≈ 3.32 µM)
- MIC [8]: 16 µg/mL (≈ 13.3 µM)
- MIC [9]: 2 µg/mL (≈ 1.66 µM)
- MIC [10]: 0.06 µg/mL (≈ 0.0498 µM)
- MIC [11]: 32 µg/mL (≈ 26.5 µM)
- MIC [12]: 16 µg/mL (≈ 13.3 µM)
- MIC ([13]; Aerobic): 4 µg/mL (≈ 3.32 µM)
- MIC ([13]; Anaerobic): > 64 µg/mL
- MIC ([14]; Aerobic): 1 µg/mL (≈ 0.83 µM)
- MIC ([14]; Anaerobic): > 64 µg/mL
- MIC [15]: 0.5 µg/mL (≈ 0.415 µM)
- MIC ([16]; Aerobic): 0.25 µg/mL (≈ 0.207 µM)
- MIC ([16]; Anaerobic): 8 µg/mL (≈ 6.64 µM)
- MIC [17, 18]: 0.06 µg/mL (≈ 0.0498 µM)
- MIC [17, 19]: 0.06 µg/mL (≈ 0.0498 µM)
